Literature values, collected in patent US7771757B2, “Nasal irrigation solutions and methods of using same” (Himalayan International Institute of Yoga Science and …, priority 2002, dated 2010).

How the values were obtained:
common cold = conditions: variously administered forms; in many cases

Compound	activity in vitro against the growth of organisms (streptococci)	activity in vitro against the growth of organisms (pneumococci)	activity in vitro against the growth of organisms (staphylococci)	reduction of the duration of common cold symptoms (common cold)
COc1ccc2cc3[n+](cc2c1OC)CCc1cc2c(cc1-3)OCO2 [berberine]	active	active	active	
zinc				by half
